# Measurements from ChEMBL document CHEMBL4507273 (2021).
# Assays:
# [1] = biological target: T1, Muscarinic acetylcholine receptor M1 (Homo sapiens) (UniProt P11229); conditions: Compound concentration 10.0 uM
# T1 sequence (whole entry): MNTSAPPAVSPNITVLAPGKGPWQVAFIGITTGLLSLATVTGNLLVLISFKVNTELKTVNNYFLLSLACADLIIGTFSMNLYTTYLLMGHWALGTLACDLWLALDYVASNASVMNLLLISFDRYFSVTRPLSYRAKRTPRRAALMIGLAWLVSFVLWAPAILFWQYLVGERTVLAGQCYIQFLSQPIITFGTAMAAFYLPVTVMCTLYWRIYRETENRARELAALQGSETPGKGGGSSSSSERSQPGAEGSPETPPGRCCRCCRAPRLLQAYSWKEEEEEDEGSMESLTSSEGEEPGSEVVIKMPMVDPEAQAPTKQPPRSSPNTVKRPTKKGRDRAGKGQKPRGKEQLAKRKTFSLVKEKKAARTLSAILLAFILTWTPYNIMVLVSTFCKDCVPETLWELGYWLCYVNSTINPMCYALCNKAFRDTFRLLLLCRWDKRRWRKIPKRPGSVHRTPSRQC
# [2] = biological target: MAP/microtubule affinity-regulating kinase 3 (Homo sapiens) (UniProt P27448); conditions: Compound concentration 1000.0 nM
# MAP/microtubule affinity-regulating kinase 3 (Homo sapiens), sequence (P27448 whole entry, looked up, canonical isoform): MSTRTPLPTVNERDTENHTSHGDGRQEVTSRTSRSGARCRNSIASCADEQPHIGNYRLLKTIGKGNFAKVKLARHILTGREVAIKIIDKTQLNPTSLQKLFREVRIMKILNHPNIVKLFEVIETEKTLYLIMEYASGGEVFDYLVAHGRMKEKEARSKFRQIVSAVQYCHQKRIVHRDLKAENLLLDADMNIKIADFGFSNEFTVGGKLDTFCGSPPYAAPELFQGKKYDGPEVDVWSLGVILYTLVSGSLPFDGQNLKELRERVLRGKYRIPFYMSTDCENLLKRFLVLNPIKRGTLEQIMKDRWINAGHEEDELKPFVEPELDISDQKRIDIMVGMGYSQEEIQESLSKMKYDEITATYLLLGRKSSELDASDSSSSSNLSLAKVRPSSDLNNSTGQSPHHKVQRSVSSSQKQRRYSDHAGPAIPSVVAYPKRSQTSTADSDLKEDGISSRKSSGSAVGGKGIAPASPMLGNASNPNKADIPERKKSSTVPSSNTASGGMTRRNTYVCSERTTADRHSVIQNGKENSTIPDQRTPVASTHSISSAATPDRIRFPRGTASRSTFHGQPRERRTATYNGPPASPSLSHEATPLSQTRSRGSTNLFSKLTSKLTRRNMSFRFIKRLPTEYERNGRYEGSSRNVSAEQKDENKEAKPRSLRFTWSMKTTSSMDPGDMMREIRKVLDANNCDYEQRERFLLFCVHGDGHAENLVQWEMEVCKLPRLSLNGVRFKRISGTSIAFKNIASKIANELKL
# [3] = system: Phosphatidylinositol 4,5-bisphosphate 3-kinase catalytic subunit alpha isoform (Homo sapiens), P42336 [H1047L]; conditions: Compound concentration 1000.0 nM
# Phosphatidylinositol 4,5-bisphosphate 3-kinase catalytic subunit alpha isoform (Homo sapiens), P42336 [H1047L], sequence (P42336 whole entry H1047L, canonical isoform): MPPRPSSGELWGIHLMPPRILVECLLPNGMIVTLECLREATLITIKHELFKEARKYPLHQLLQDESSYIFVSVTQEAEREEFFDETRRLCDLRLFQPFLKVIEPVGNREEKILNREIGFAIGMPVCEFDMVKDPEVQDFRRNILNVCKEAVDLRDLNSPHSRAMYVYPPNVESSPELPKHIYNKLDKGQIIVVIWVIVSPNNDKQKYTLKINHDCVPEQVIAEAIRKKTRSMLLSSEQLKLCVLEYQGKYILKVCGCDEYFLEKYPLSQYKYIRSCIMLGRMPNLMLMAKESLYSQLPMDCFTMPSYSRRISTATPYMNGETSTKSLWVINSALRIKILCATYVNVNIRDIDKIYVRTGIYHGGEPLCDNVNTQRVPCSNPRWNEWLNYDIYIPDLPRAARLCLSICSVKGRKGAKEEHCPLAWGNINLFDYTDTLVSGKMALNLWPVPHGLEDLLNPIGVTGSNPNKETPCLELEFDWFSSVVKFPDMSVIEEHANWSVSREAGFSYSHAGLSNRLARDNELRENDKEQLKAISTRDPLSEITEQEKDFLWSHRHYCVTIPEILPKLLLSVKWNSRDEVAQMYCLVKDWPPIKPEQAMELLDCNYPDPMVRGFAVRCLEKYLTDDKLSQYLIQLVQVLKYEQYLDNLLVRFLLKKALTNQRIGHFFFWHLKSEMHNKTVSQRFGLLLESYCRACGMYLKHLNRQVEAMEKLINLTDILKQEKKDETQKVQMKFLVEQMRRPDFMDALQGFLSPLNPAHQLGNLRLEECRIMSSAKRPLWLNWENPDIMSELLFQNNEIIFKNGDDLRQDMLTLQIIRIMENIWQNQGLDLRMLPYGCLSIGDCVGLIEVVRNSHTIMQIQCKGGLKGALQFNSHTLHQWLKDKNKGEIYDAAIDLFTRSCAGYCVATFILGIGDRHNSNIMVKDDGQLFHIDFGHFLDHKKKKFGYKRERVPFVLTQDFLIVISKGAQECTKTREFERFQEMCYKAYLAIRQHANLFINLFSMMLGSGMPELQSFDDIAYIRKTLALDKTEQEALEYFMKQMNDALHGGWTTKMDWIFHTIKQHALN
# [4] = biological target: T2, Alpha-1D adrenergic receptor (Homo sapiens, UniProt P25100); experiment: GPCRScan assay: inhibition of Alpha1D; design: radioligand conc. used [nm] 0.3 – 1.0, parental cells stable
# T2 sequence (P25100 whole entry): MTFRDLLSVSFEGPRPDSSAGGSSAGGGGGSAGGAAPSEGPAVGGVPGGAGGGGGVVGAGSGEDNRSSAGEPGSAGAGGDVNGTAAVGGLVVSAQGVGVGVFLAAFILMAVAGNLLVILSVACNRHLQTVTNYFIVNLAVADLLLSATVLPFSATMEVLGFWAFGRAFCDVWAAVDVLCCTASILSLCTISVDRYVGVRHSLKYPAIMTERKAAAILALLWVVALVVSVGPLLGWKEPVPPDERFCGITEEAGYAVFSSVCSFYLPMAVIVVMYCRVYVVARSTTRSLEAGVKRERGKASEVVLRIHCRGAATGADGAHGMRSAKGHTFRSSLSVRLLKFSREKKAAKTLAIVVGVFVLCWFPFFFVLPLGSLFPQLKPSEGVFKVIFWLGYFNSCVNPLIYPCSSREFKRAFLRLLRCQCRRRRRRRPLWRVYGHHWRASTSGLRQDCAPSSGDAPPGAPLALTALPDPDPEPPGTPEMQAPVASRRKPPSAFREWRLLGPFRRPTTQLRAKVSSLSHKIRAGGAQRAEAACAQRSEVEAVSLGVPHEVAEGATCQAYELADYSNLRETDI
# [5] = biological target: Mitogen-activated protein kinase 11 (Homo sapiens) (UniProt Q15759); conditions: Compound concentration 1000.0 nM
# Mitogen-activated protein kinase 11 (Homo sapiens), sequence (Q15759 whole entry, canonical isoform): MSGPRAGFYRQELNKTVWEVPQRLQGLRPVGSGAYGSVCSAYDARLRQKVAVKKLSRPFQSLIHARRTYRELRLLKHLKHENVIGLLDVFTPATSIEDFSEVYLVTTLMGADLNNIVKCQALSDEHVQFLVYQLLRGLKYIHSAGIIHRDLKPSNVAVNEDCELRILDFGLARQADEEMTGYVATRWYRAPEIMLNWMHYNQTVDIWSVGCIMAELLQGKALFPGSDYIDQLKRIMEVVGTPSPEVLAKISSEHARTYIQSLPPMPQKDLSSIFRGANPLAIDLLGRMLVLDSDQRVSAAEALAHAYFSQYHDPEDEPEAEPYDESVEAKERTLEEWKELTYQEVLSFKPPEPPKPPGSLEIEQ
# [6] = biological target: Casein kinase I isoform gamma-2 (Homo sapiens) (UniProt P78368); conditions: Compound concentration 1000.0 nM
# Casein kinase I isoform gamma-2 (Homo sapiens), sequence (P78368 whole entry, looked up, canonical isoform): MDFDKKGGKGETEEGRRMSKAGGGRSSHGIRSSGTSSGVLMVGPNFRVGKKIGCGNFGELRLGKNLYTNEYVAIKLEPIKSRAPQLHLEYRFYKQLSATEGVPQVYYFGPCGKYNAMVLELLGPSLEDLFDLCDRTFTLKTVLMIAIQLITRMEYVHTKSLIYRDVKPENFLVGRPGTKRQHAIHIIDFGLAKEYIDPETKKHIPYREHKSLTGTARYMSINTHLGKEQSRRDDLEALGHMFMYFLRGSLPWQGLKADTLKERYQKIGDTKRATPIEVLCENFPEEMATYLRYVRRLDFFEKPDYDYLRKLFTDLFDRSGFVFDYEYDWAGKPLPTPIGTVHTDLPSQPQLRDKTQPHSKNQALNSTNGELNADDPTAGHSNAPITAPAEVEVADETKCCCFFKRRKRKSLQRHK
# [7] = biological target: Tyrosine-protein kinase TXK (Homo sapiens) (UniProt P42681); conditions: Compound concentration 1000.0 nM
# Tyrosine-protein kinase TXK (Homo sapiens), sequence (P42681 whole entry): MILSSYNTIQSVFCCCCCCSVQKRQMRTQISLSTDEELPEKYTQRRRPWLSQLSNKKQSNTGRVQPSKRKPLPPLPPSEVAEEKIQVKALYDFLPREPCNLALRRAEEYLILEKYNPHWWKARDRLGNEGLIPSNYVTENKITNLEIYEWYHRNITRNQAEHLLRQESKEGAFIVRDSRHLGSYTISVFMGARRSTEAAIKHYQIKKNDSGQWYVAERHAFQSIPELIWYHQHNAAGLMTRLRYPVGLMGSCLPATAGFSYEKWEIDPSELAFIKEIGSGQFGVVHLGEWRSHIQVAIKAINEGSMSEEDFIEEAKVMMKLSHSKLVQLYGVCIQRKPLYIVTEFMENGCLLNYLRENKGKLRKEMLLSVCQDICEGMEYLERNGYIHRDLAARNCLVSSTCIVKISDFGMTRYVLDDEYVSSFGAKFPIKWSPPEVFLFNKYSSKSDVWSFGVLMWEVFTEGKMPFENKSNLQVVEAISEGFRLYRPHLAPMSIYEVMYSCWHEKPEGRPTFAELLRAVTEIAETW
# [8] = biological target: Ephrin type-A receptor 3 (Homo sapiens) (UniProt P29320); conditions: Compound concentration 1000.0 nM
# [9] = biological target: Mast/stem cell growth factor receptor Kit (Homo sapiens) (UniProt P10721); conditions: Compound concentration 1000.0 nM
# [10] = biological target: 5-hydroxytryptamine receptor 7 (Homo sapiens, UniProt P34969); experiment: GPCRScan assay: inhibition of 5-HT7A; design: radioligand conc. used [nm] 5.0 – 6.0, parental cells Stable HEK
# 5-hydroxytryptamine receptor 7, sequence (P34969 whole entry): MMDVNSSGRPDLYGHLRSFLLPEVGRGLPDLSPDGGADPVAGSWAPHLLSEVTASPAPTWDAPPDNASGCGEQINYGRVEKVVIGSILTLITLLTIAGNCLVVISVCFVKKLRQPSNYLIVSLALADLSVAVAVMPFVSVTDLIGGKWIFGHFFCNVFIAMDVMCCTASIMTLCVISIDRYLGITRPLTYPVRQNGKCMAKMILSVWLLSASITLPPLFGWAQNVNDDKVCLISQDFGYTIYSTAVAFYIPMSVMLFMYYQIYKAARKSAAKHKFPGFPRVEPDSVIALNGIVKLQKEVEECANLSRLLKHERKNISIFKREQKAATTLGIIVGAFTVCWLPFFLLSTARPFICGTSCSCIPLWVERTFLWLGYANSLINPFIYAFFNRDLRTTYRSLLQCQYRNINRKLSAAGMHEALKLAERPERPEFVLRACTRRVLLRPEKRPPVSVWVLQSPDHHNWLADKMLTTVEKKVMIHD
# [11] = biological target: T3, Alpha-2B adrenergic receptor (Homo sapiens, UniProt P18089); experiment: GPCRScan assay: inhibition of Alpha2B; design: radioligand conc. used [nm] 1.5 – 2.0, parental cells HEKT
# T3 sequence (P18089 whole entry): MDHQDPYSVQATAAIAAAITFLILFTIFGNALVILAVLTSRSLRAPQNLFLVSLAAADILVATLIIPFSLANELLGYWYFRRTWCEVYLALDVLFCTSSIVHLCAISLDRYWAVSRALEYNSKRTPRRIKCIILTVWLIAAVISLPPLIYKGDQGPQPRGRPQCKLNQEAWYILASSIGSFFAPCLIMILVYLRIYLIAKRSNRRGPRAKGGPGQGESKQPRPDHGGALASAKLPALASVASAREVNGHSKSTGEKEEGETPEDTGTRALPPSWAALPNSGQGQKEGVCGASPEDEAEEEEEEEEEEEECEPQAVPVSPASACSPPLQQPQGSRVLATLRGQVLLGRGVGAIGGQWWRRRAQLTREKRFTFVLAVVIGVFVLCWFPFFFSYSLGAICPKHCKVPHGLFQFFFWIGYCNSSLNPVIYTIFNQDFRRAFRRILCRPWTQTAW
# [12] = system: Leucine-rich repeat serine/threonine-protein kinase 2 (Homo sapiens), Q5S007 [G2019S]; conditions: Compound concentration 1000.0 nM
# [13] = biological target: Phosphatidylinositol 4-phosphate 5-kinase type-1 gamma (Homo sapiens) (UniProt O60331); conditions: Compound concentration 1000.0 nM
# [14] = biological target: Calcium/calmodulin-dependent protein kinase type 1D (Homo sapiens) (UniProt Q8IU85); conditions: Compound concentration 1000.0 nM
# Calcium/calmodulin-dependent protein kinase type 1D (Homo sapiens), sequence (Q8IU85 whole entry, looked up): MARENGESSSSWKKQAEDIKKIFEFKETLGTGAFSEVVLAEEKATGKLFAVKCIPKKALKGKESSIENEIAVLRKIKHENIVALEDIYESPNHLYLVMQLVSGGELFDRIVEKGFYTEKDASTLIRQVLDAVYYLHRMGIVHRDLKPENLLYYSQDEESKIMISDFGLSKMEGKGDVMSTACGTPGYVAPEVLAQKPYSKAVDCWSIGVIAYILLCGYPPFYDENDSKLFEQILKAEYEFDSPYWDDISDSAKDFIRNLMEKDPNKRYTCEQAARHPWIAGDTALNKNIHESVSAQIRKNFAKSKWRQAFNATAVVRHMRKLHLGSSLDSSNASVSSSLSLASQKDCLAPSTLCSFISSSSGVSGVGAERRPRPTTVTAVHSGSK
# [15] = biological target: T4, Alpha-1A adrenergic receptor (Homo sapiens) (UniProt P35348); conditions: Compound concentration 10.0 uM
# T4 sequence (whole entry): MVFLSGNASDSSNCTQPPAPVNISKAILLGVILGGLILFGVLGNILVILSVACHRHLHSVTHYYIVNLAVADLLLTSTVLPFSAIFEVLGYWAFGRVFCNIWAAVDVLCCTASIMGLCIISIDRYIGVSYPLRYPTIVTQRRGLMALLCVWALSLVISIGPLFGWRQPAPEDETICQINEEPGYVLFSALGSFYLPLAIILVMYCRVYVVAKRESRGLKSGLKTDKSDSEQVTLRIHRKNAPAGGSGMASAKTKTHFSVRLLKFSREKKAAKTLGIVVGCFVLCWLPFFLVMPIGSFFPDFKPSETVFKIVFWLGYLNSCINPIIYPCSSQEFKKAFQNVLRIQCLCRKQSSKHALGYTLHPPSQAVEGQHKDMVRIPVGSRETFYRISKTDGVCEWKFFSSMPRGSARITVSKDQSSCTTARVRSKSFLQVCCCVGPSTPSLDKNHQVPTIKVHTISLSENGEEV
# [16] = system: Phosphatidylinositol 4,5-bisphosphate 3-kinase catalytic subunit alpha isoform (Homo sapiens), P42336 [H1047Y]; conditions: Compound concentration 1000.0 nM
# Phosphatidylinositol 4,5-bisphosphate 3-kinase catalytic subunit alpha isoform (Homo sapiens), P42336 [H1047Y], sequence (P42336 whole entry H1047Y, canonical isoform): as the sequence (P42336 whole entry H1047L, canonical isoform) above, with L1047Y counted along it
# [17] = biological target: Cyclin-dependent kinase 18 (Homo sapiens) (UniProt Q07002); conditions: Compound concentration 1000.0 nM
# Cyclin-dependent kinase 18 (Homo sapiens), sequence (Q07002 whole entry): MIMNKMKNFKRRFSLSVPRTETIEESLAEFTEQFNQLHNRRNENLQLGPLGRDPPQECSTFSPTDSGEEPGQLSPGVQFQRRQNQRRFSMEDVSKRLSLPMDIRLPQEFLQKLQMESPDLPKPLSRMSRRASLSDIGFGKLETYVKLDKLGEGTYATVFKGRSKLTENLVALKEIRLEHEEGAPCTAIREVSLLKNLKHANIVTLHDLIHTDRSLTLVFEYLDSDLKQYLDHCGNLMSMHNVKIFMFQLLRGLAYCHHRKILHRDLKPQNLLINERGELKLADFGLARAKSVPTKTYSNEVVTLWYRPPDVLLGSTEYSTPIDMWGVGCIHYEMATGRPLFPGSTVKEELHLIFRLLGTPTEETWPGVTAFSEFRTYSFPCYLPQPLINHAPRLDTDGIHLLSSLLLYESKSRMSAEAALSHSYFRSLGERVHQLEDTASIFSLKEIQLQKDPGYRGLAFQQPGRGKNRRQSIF
# [18] = biological target: Serine/threonine-protein kinase tousled-like 2 (Homo sapiens) (UniProt Q86UE8); conditions: Compound concentration 1000.0 nM
SMILES,inhibition [1] [%],residual activity [2] [%],residual activity [3] [%],Ki ([4]; read-out: Ki) [nM],residual activity [5] [%],residual activity [6] [%],residual activity [7] [%],residual activity [8] [%],residual activity [9] [%],Ki ([10]; read-out: Ki) [nM],Ki ([11]; read-out: Ki) [nM],residual activity [12] [%],residual activity [13] [%],residual activity [14] [%],inhibition [15] [%],residual activity [16] [%],residual activity [17] [%],residual activity [18] [%],further results
CNCc1ccccc1-c1csc([C@@H](C)Nc2nc(C)nc3cc(OC)c(OC)cc23)c1 [BAY-293],88.8,89,95,338,86,98,76,87,81,1730,1230,72,88,100,71.6,100,100,90,Ki ([10]; read-out: pKi (converted)): 1700 nM
CNCc1ccccc1-c1csc([C@H](C)Nc2nc(C)nc3cc(OC)c(OC)cc23)c1 [BAY-294],89.1,100,88,397,100,100,100,100,70,700,847,84,100,100,83.4,100,100,100,Ki ([4]; read-out: pKi (converted)): 389 nM; Ki ([11]; read-out: pKi (converted)): 813 nM
